Measurements taken from publication PMC2363476 (British Journal of Cancer, 2000).
Where a name gives a salt, the structure may show the parent alone. Read-outs that look alike come from different tables or passages of the source.

Assays:
[1] = Plasma pharmacokinetics of irinotecan and SN-38 (reversed-phase HPLC); conditions: for SN-38/irinotecan AUC ratio / SN-38 Cmax / AUC / Cmax: cycle 1; for SN-38 Cmax: observed Cmax; for AUC / Cmax: human, plasma; for AUC: intravenous, Irinotecan AUC; for Cmax: iv, Irinotecan Cmax, estimated at the end of i.v. infusion
Experimental: Other radiological investi- gations were carried out if indicated. […] Pharmacokinetic analysis was performed using WinNonlin software. […] Patients were seen weekly while on treatment.

[2] = 1995, cited from earlier work
[3] = system: patients with advanced GI tract adenocarcinoma
Description: The primary objectives of this study were to determine the maximum tolerated doses (MTD) of the two drugs given as short infusions every 3 weeks and to determine the toxic effects and DLT of the combination. Secondary objectives were to measure the pharmacokinetics of irinotecan, SN-38 and raltitrexed, to assess the anti-tumour effect of the combination and to recom- mend a safe dose for phase II evaluation. METHODS Definitions DLT was defined as any grade 3 or 4 non-haematological toxicity (except alopecia) following cycle 1; grade 4 neutropenia or grade 3-4 neutropenia associated with fever (> 38C) or sepsis; grade 4 thrombocytopenia or any grade of thrombocytopenia associated with haemorrhage. MTD was defined as the dose level at which 50% of patients experienced the same DLT. […] Exclusion criteria were: previous treatment with topoisomerase I inhibitor; chronic enteropathy; symptomatic cerebral metastasis or leptomeningeal carcinomatosis; unresolved bowel obstruction; pregnancy; previous malignant disease (except adequately treated carcinoma in situ of the cervix uteri or basal cell carcinoma of the skin). Pre-treatment evaluation Prior to entry, patients were evaluated with a physical examina- tion. An ECG, chest X-ray and CT scan of thorax abdomen and pelvis were carried out on all patients. Other radiological investi- gations were carried out if indicated. A full blood count, renal function tests, liver function tests and prothrombin time were also performed. […] A minimum of three patients were recruited to each dose level, and escalation to the next level was carried out when all three had been observed for a minimum of 2 weeks. The initial design was for the level below MTD to be expanded to six patients. […] Patients received six cycles of treatment subject to favourable response. Further cycles could be administered at the investigators' discre- tion if there was evidence of continuing clinical benefit. […] Pharmacokinetic analysis was performed using WinNonlin software. The calculation of kinetic parameters was performed using a 2- or 3-compartment open model for irinotecan, and a non-compartmental analysis for its metabolite SN-38 and raltitrexed. The following parameters were evaluated: maximum plasma concentration (Cmax ); area under the plasma concentration-time curve (AUC); total body clearance (Cl); volume of distribution at steady state (Vss ) and terminal half-life (t1/2 ). Evaluation and management of toxicity No prophylactic antidiarrhoeal treatment was given. […] Patients were seen weekly while on treatment. Toxicities were graded according to the NCI common toxicity criteria (NCI-CTC). […] Any patient experiencing concomitant vomiting was hospitalized to prevent dehydration. […] All patients with febrile neutropaenia were admitted to hospital and treated with intravenous antibiotics. […] In the case of myelosuppression lasting more than 5 weeks from the date of treatment, the patient was withrawn from the study.

[4] = Plasma pharmacokinetics of raltitrexed (radioimmunoassay); type: in vivo; conditions: human, intravenous
Experimental: […]. […] […]. […] 261 courses were administered. […] Two others had lethargy caused by disease progression. There was no first-cycle neutropenia. […] […]; 6/30 patients (20%) had objective responses. This combination is active with manageable toxicity. […] Other radiological investi- gations were carried out if indicated. […] […]. […] Pharmacokinetic analysis was performed using WinNonlin software. […] […]. Patients were seen weekly while on treatment. […] […]. […] All the other patients were evaluable for toxicity. […] Duration of neutropaenia ranged from 3-8 days. […] Grade 3 lethargy was therefore defined as a DLT. […] […]. […] They therefore continued treatment as scheduled. […] Dose delays were seen after 24/143 cycles (17%). […] Six patients required dose reduction.

[5] = 1998, cited from earlier work
[6] = dose level I (irinotecan 175, raltitrexed 2.6 mg m-2), n=3
[7] = dose level II (irinotecan 200, raltitrexed 2.6 mg m-2), n=3
[8] = dose level III (irinotecan 250, raltitrexed 2.6 mg m-2), n=3
[9] = dose level IV (irinotecan 300, raltitrexed 2.6 mg m-2), n=3
[10] = dose level V (irinotecan 350, raltitrexed 2.6 mg m-2), n=3
[11] = dose level VI (irinotecan 350, raltitrexed 3.0 mg m-2), n=6
[12] = dose level VII (irinotecan 400, raltitrexed 2.6 mg m-2), n=5
[13] = dose level I (irinotecan 175, raltitrexed 2.6 mg m-2), cycle 1, n=3
[14] = dose level II (irinotecan 200, raltitrexed 2.6 mg m-2), cycle 1, n=3
[15] = dose level III (irinotecan 250, raltitrexed 2.6 mg m-2), cycle 1, n=3
[16] = dose level IV (irinotecan 300, raltitrexed 2.6 mg m-2), cycle 1, n=3
[17] = dose level V (irinotecan 350, raltitrexed 2.6 mg m-2), cycle 1, n=3
[18] = dose level VI (irinotecan 350, raltitrexed 3.0 mg m-2), cycle 1, n=6
[19] = dose level VII (irinotecan 400, raltitrexed 2.6 mg m-2), cycle 1, n=6
[20] = 3.0 mg m-2, 14C labelled raltitrexed, single agent, ref Beale et al

## CCc1c2c(nc3ccc(O)cc13)-c1cc3c(c(=O)n1C2)COC(=O)[C@]3(O)CC [SN-38]
[1]; all dose levels
  SN-38 time of maximal concentrations following the end of i.v. infusion: ≤ 60 min
[1]; [6]
  SN-38/irinotecan AUC ratio: 2.1%
  SN-38 Cmax: 48000 µg/mL
[1]; [7]
  SN-38/irinotecan AUC ratio: 3.2%
  SN-38 Cmax: 74000 µg/mL
[1]; [8]
  SN-38/irinotecan AUC ratio: 2.3%
  SN-38 Cmax: 60000 µg/mL
[1]; [9]
  SN-38/irinotecan AUC ratio: 2.1%
  SN-38 Cmax: 71000 µg/mL
[1]; [10]
  SN-38/irinotecan AUC ratio: 2.9%
  SN-38 Cmax: 57000 µg/mL
[1]; [11]
  SN-38/irinotecan AUC ratio: 2.1%
  SN-38 Cmax: 100000 µg/mL
[1]; [12]
  SN-38/irinotecan AUC ratio: 2.7%
  SN-38 Cmax: 117000 µg/mL
[1]; over the administered dose range
  SN-38 apparent terminal half-life, mean value: 0.462 days
[1]; over the tested dose range
  SN-38/irinotecan AUC ratio, overall mean value: 2.4%
[2]; 168 phase I cancer patients treated with irinotecan alone, ref Chabot et al
  SN-38 t1/2: 0.442 days
[2]; irinotecan monotherapy, ref Abigerges et al
  SN-38/irinotecan AUC ratio, overall mean value: 3.1%

## CCc1c2c(nc3ccc(OC(=O)N4CCC(N5CCCCC5)CC4)cc13)-c1cc3c(c(=O)n1C2)COC(=O)[C@]3(O)CC [irinotecan, Irinotecan hydrochloride]
[1]; [6]
  AUC: 13100 ng·h/mL
  Cmax: 3.53 µg/mL
[1]; [7]
  AUC: 16000 ng·h/mL
  Cmax: 4.7 µg/mL
[1]; [8]
  AUC: 14600 ng·h/mL
  Cmax: 5.92 µg/mL
[1]; [9]
  AUC: 22600 ng·h/mL
  Cmax: 5.98 µg/mL
[1]; [10]
  AUC: 26600 ng·h/mL
  Cmax: 4.89 µg/mL
[1]; [11]
  AUC: 29000 ng·h/mL
  Cmax: 5.43 µg/mL
[1]; [12]
  AUC: 27000 ng·h/mL
  Cmax: 5.41 µg/mL
[3]; with raltitrexed 2.6 mg m-2, 3-weekly (level VII)
  MTD, irinotecan dose: 400 mg m-2
[3]; with raltitrexed 3.0 mg m-2 every 3 weeks (level VI)
  recommended dose for phase II evaluation, irinotecan: 350 mg m-2

## Cc1nc2ccc(CN(C)c3ccc(C(=O)N[C@@H](CCC(=O)O)C(=O)O)s3)cc2c(=O)[nH]1 [raltitrexed]
[4]; [13]
  AUC: 1710 ng·h/mL
  Cmax: 0.561 µg/mL
[4]; dose level I (irinotecan 175, raltitrexed 2.6 mg m-2), cycle 1, n=3, read-out: Raltitrexed Cl (converted)
  clearance: 50.2 mL/min
[4]; dose level I (irinotecan 175, raltitrexed 2.6 mg m-2), cycle 1, n=3, read-out: Raltitrexed Vss
  Vd: 40.7 L
[4]; dose level I (irinotecan 175, raltitrexed 2.6 mg m-2), cycle 1, n=3, read-out: Raltitrexed t1/2 terminal (converted)
  half-life: 9.25 days
[4]; [14]
  AUC: 1440 ng·h/mL
  Cmax: 0.42 µg/mL
[4]; dose level II (irinotecan 200, raltitrexed 2.6 mg m-2), cycle 1, n=3, read-out: Raltitrexed Cl (converted)
  clearance: 78.3 mL/min
[4]; dose level II (irinotecan 200, raltitrexed 2.6 mg m-2), cycle 1, n=3, read-out: Raltitrexed Vss
  Vd: 27.3 L
[4]; dose level II (irinotecan 200, raltitrexed 2.6 mg m-2), cycle 1, n=3, read-out: Raltitrexed t1/2 terminal (converted)
  half-life: 7.92 days
[4]; [15]
  AUC: 1460 ng·h/mL
  Cmax: 0.291 µg/mL
[4]; dose level III (irinotecan 250, raltitrexed 2.6 mg m-2), cycle 1, n=3, read-out: Raltitrexed Cl (converted)
  clearance: 56 mL/min
[4]; dose level III (irinotecan 250, raltitrexed 2.6 mg m-2), cycle 1, n=3, read-out: Raltitrexed Vss
  Vd: 60.2 L
[4]; dose level III (irinotecan 250, raltitrexed 2.6 mg m-2), cycle 1, n=3, read-out: Raltitrexed t1/2 terminal (converted)
  half-life: 14.4 days
[4]; [16]
  AUC: 1810 ng·h/mL
  Cmax: 0.676 µg/mL
[4]; dose level IV (irinotecan 300, raltitrexed 2.6 mg m-2), cycle 1, n=3, read-out: Raltitrexed Cl (converted)
  clearance: 47.2 mL/min
[4]; dose level IV (irinotecan 300, raltitrexed 2.6 mg m-2), cycle 1, n=3, read-out: Raltitrexed Vss
  Vd: 32.3 L
[4]; dose level IV (irinotecan 300, raltitrexed 2.6 mg m-2), cycle 1, n=3, read-out: Raltitrexed t1/2 terminal (converted)
  half-life: 14.5 days
[4]; [17]
  AUC: 2520 ng·h/mL
  Cmax: 0.736 µg/mL
[4]; dose level V (irinotecan 350, raltitrexed 2.6 mg m-2), cycle 1, n=3, read-out: Raltitrexed Cl (converted)
  clearance: 41.7 mL/min
[4]; dose level V (irinotecan 350, raltitrexed 2.6 mg m-2), cycle 1, n=3, read-out: Raltitrexed Vss
  Vd: 30.2 L
[4]; dose level V (irinotecan 350, raltitrexed 2.6 mg m-2), cycle 1, n=3, read-out: Raltitrexed t1/2 terminal (converted)
  half-life: 16.8 days
[4]; [18]
  AUC: 2480 ng·h/mL
  Cmax: 0.772 µg/mL
[4]; dose level VI (irinotecan 350, raltitrexed 3.0 mg m-2), cycle 1, n=6, read-out: Raltitrexed Cl (converted)
  clearance: 40.2 mL/min
[4]; dose level VI (irinotecan 350, raltitrexed 3.0 mg m-2), cycle 1, n=6, read-out: Raltitrexed Vss
  Vd: 25.8 L
[4]; dose level VI (irinotecan 350, raltitrexed 3.0 mg m-2), cycle 1, n=6, read-out: Raltitrexed t1/2 terminal (converted)
  half-life: 12.3 days
[4]; [19]
  AUC: 1500 ng·h/mL
  Cmax: 0.574 µg/mL
[4]; dose level VII (irinotecan 400, raltitrexed 2.6 mg m-2), cycle 1, n=6, read-out: Raltitrexed Cl (converted)
  clearance: 55.7 mL/min
[4]; dose level VII (irinotecan 400, raltitrexed 2.6 mg m-2), cycle 1, n=6, read-out: Raltitrexed Vss
  Vd: 43.8 L
[4]; dose level VII (irinotecan 400, raltitrexed 2.6 mg m-2), cycle 1, n=6, read-out: Raltitrexed t1/2 terminal (converted)
  half-life: 10.9 days
[4]; over all dose ranges, 27 patients, read-out: raltitrexed Cl (converted)
  clearance: 51.7 mL/min
[4]; over all dose ranges, 27 patients, read-out: raltitrexed t1/2 (converted)
  half-life: 12.1 days
[3]; combination treatment
  patients with lower limb cellulitis secondary to raltitrexed: One
[3]; with irinotecan 350 mg m-2 every 3 weeks (level VI)
  recommended dose for phase II evaluation, raltitrexed: 3.0 mg m-2
[3]; with irinotecan 400 mg m-2, 3-weekly (level VII)
  MTD, raltitrexed dose: 2.6 mg m-2
[5]; [20]
  raltitrexed AUC: 2342 ng/h/mL
  raltitrexed Cmax: 0.737 µg/mL
  raltitrexed clearance: 2.48 L/h
[5]; patients with measured creatinine clearance less than 65 ml min-1, ref Judson et al
  change of raltitrexed AUC in renal impairment: approximately doubled
